PubChem BioAssay (NCI)
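48-hour exposure; five concentrations; linearly interpolated endpoints. GI50 is the concentration that inhibits growth by half. TGI: concentration producing complete growth inhibition.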

Assays:
Assay in all cases: inhibition of tumour cell growth, NCI panel, 48 h
HOP-92 NSCLC = tested on: HOP-92 NSCLC
UACC-62 melanoma = tested on: UACC-62 melanoma
K-562 leukemia = tested on: K-562 leukemia
EKVX NSCLC = tested on: EKVX NSCLC
SF-268 CNS = tested on: SF-268 CNS
TK-10 renal = tested on: TK-10 renal
SNB-75 CNS = tested on: SNB-75 CNS
KM12 colon = tested on: KM12 colon
RXF 393 renal = tested on: RXF 393 renal
A549 NSCLC = tested on: A549 NSCLC
SF-539 CNS = tested on: SF-539 CNS
UO-31 renal = tested on: UO-31 renal
BT-549 breast = tested on: BT-549 breast
A498 renal = tested on: A498 renal
MCF7 breast = tested on: MCF7 breast
RPMI-8226 leukemia = tested on: RPMI-8226 leukemia
U251 CNS = tested on: U251 CNS
MDA-MB-435 = tested on: MDA-MB-435
ACHN renal = tested on: ACHN renal
NCI-H460 lung = tested on: NCI-H460 lung
NCI-H23 lung = tested on: NCI-H23 lung
IGROV1 ovarian = tested on: IGROV1 ovarian
T-47D breast = tested on: T-47D breast
HOP-62 NSCLC = tested on: HOP-62 NSCLC
HS 578T breast = tested on: HS 578T breast
SK-OV-3 ovarian = tested on: SK-OV-3 ovarian
CAKI-1 renal = tested on: CAKI-1 renal
UACC-257 melanoma = tested on: UACC-257 melanoma
NCI-H522 lung = tested on: NCI-H522 lung
CCRF-CEM leukemia = tested on: CCRF-CEM leukemia
HCT-116 colon = tested on: HCT-116 colon
DU-145 prostate = tested on: DU-145 prostate
SNB-19 CNS = tested on: SNB-19 CNS
HL-60(TB) leukemia = tested on: HL-60(TB) leukemia
OVCAR-8 ovarian = tested on: OVCAR-8 ovarian
786-0 renal = tested on: 786-0 renal
NCI-H226 lung = tested on: NCI-H226 lung
SK-MEL-2 melanoma = tested on: SK-MEL-2 melanoma
SK-MEL-5 melanoma = tested on: SK-MEL-5 melanoma
OVCAR-4 ovarian = tested on: OVCAR-4 ovarian
SN12C renal = tested on: SN12C renal
COLO 205 colon = tested on: COLO 205 colon
LOX IMVI melanoma = tested on: LOX IMVI melanoma
SF-295 CNS = tested on: SF-295 CNS
SR leukemia = tested on: SR leukemia
PC-3 prostate = tested on: PC-3 prostate
MDA-MB-231 breast = tested on: MDA-MB-231 breast
MALME-3M melanoma = tested on: MALME-3M melanoma
OVCAR-5 ovarian = tested on: OVCAR-5 ovarian

`C#C[C@]1(O)CC[C@H]2[C@@H]3CC=C4c5sc(Nc6nc(C)cc(OC)n6)nc5CC[C@]4(C)[C@H]3CC[C@@]21C` gave a GI50 (HOP-92 NSCLC) of 2.65 µM, a TGI (HOP-92 NSCLC) of 7.69 µM and a GI50 (UACC-62 melanoma) of 0.54 µM. For the same compound, the TGI (UACC-62 melanoma) was 2.73 µM, the GI50 (K-562 leukemia) was 0.528 µM and the TGI (K-562 leukemia) was over 100 µM. For the same compound, the GI50 (EKVX NSCLC) was 2.39 µM, the TGI (EKVX NSCLC) was over 100 µM and the GI50 (SF-268 CNS) was 5.47 µM. It also gave a TGI (SF-268 CNS) of over 100 µM, a GI50 (TK-10 renal) of 14.9 µM and a TGI (TK-10 renal) of over 100 µM. For the same compound, the GI50 (SNB-75 CNS) was 0.864 µM, the TGI (SNB-75 CNS) was 84.8 µM and the GI50 (KM12 colon) was 3.16 µM. It also gave a TGI (KM12 colon) of over 100 µM, a GI50 (RXF 393 renal) of 0.161 µM and a TGI (RXF 393 renal) of 0.497 µM. For the same compound, the GI50 (A549 NSCLC) was 2.97 µM, the TGI (A549 NSCLC) was over 100 µM and the GI50 (SF-539 CNS) was 0.264 µM. It also gave a TGI (SF-539 CNS) of 1.43 µM, a GI50 (UO-31 renal) of 0.575 µM and a TGI (UO-31 renal) of 3.18 µM. The GI50 (BT-549 breast) was 4.5 µM, the TGI (BT-549 breast) was 79.9 µM and the GI50 (A498 renal) was 1.51 µM. It also gave a TGI (A498 renal) of 5.93 µM, a GI50 (MCF7 breast) of 1.41 µM and a TGI (MCF7 breast) of over 100 µM. It also gave a GI50 (RPMI-8226 leukemia) of 0.239 µM, a TGI (RPMI-8226 leukemia) of 0.899 µM and a GI50 (U251 CNS) of 0.575 µM. It also gave a TGI (U251 CNS) of 73.1 µM, a GI50 (MDA-MB-435) of 2.35 µM and a TGI (MDA-MB-435) of over 100 µM. It also gave a GI50 (ACHN renal) of 1.19 µM, a TGI (ACHN renal) of over 100 µM and a GI50 (NCI-H460 lung) of 1.82 µM. For the same compound, the TGI (NCI-H460 lung) was over 100 µM, the GI50 (NCI-H23 lung) was 3.93 µM and the TGI (NCI-H23 lung) was over 100 µM. It also gave a GI50 (IGROV1 ovarian) of 3.44 µM, a TGI (IGROV1 ovarian) of over 100 µM and a GI50 (T-47D breast) of 2.57 µM. For the same compound, the TGI (T-47D breast) was over 100 µM, the GI50 (HOP-62 NSCLC) was 2.01 µM and the TGI (HOP-62 NSCLC) was 35.2 µM. The GI50 (HS 578T breast) was 0.323 µM, the TGI (HS 578T breast) was 2.19 µM and the GI50 (SK-OV-3 ovarian) was 1.55 µM. The TGI (SK-OV-3 ovarian) was 9.13 µM, the GI50 (CAKI-1 renal) was 1.55 µM and the TGI (CAKI-1 renal) was over 100 µM. It also gave a GI50 (UACC-257 melanoma) of 1.74 µM, a TGI (UACC-257 melanoma) of 4.82 µM and a GI50 (NCI-H522 lung) of 3.02 µM. For the same compound, the TGI (NCI-H522 lung) was over 100 µM, the GI50 (CCRF-CEM leukemia) was 1.21 µM and the TGI (CCRF-CEM leukemia) was over 100 µM. The GI50 (HCT-116 colon) was 1.24 µM, the TGI (HCT-116 colon) was over 100 µM and the GI50 (DU-145 prostate) was 3.25 µM. It also gave a TGI (DU-145 prostate) of over 100 µM, a GI50 (SNB-19 CNS) of 0.986 µM and a TGI (SNB-19 CNS) of over 100 µM. The GI50 (HL-60(TB) leukemia) was 0.531 µM, the TGI (HL-60(TB) leukemia) was 5.38 µM and the GI50 (OVCAR-8 ovarian) was 4.16 µM. For the same compound, the TGI (OVCAR-8 ovarian) was over 100 µM, the GI50 (786-0 renal) was 0.379 µM and the TGI (786-0 renal) was 2.28 µM. It also gave a GI50 (NCI-H226 lung) of over 100 µM and a TGI (NCI-H226 lung) of over 100 µM.

`O=C(Nc1ccc(Br)cc1)Nc1nc2ccc([N+](=O)[O-])cc2s1` showed a GI50 (SK-MEL-2 melanoma) of 1.26 µM, a TGI (SK-MEL-2 melanoma) of 3 µM and a GI50 (UACC-62 melanoma) of 1.07 µM. It also gave a TGI (UACC-62 melanoma) of 3.6 µM, a GI50 (SK-MEL-5 melanoma) of 0.696 µM and a TGI (SK-MEL-5 melanoma) of 2.03 µM. The GI50 (SF-268 CNS) was 1.69 µM, the TGI (SF-268 CNS) was 5.44 µM and the GI50 (OVCAR-4 ovarian) was 1.13 µM. For the same compound, the TGI (OVCAR-4 ovarian) was 3.82 µM, the GI50 (TK-10 renal) was 1.89 µM and the TGI (TK-10 renal) was 4.75 µM. It also gave a GI50 (SNB-75 CNS) of 1.07 µM, a TGI (SNB-75 CNS) of 3 µM and a GI50 (RXF 393 renal) of 0.862 µM. For the same compound, the TGI (RXF 393 renal) was 2.41 µM, the GI50 (A549 NSCLC) was 1.86 µM and the TGI (A549 NSCLC) was 6.9 µM. The GI50 (SF-539 CNS) was 1.31 µM, the TGI (SF-539 CNS) was 3.08 µM and the GI50 (SN12C renal) was 1.53 µM. It also gave a TGI (SN12C renal) of 4.65 µM, a GI50 (COLO 205 colon) of 1.64 µM and a TGI (COLO 205 colon) of 3.15 µM. It also gave a GI50 (UO-31 renal) of 1.49 µM, a TGI (UO-31 renal) of 4.74 µM and a GI50 (LOX IMVI melanoma) of 1.34 µM. For the same compound, the TGI (LOX IMVI melanoma) was 2.67 µM, the GI50 (BT-549 breast) was 1.52 µM and the TGI (BT-549 breast) was 3.27 µM. For the same compound, the GI50 (A498 renal) was 0.192 µM, the TGI (A498 renal) was 0.785 µM and the GI50 (RPMI-8226 leukemia) was 0.425 µM. It also gave a TGI (RPMI-8226 leukemia) of 1.7 µM, a GI50 (U251 CNS) of 1.2 µM and a TGI (U251 CNS) of 4.26 µM. For the same compound, the GI50 (NCI-H460 lung) was 1.28 µM, the TGI (NCI-H460 lung) was 3.08 µM and the GI50 (NCI-H23 lung) was 0.926 µM. The TGI (NCI-H23 lung) was 2.5 µM, the GI50 (T-47D breast) was 0.573 µM and the TGI (T-47D breast) was 3.38 µM. For the same compound, the GI50 (HOP-62 NSCLC) was 1.88 µM, the TGI (HOP-62 NSCLC) was 5.04 µM and the GI50 (HS 578T breast) was 1.47 µM. For the same compound, the TGI (HS 578T breast) was 3.99 µM, the GI50 (SK-OV-3 ovarian) was 1.59 µM and the TGI (SK-OV-3 ovarian) was 6.75 µM. It also gave a GI50 (SF-295 CNS) of 1.27 µM, a TGI (SF-295 CNS) of 2.95 µM and a GI50 (UACC-257 melanoma) of 1.43 µM. It also gave a TGI (UACC-257 melanoma) of 4.11 µM, a GI50 (SR leukemia) of 0.474 µM and a TGI (SR leukemia) of 2.28 µM. For the same compound, the GI50 (CCRF-CEM leukemia) was 0.377 µM, the TGI (CCRF-CEM leukemia) was 2.74 µM and the GI50 (PC-3 prostate) was 0.542 µM. It also gave a TGI (PC-3 prostate) of 2.08 µM, a GI50 (HCT-116 colon) of 0.875 µM and a TGI (HCT-116 colon) of 2.37 µM. For the same compound, the GI50 (DU-145 prostate) was 1.73 µM, the TGI (DU-145 prostate) was 4.68 µM and the GI50 (SNB-19 CNS) was 1.18 µM. It also gave a TGI (SNB-19 CNS) of 4.07 µM, a GI50 (HL-60(TB) leukemia) of 1.02 µM and a TGI (HL-60(TB) leukemia) of 2.75 µM. The GI50 (MDA-MB-231 breast) was 1.47 µM, the TGI (MDA-MB-231 breast) was 3.5 µM and the GI50 (MALME-3M melanoma) was 0.792 µM. The TGI (MALME-3M melanoma) was 3.49 µM, the GI50 (NCI-H226 lung) was 1.44 µM and the TGI (NCI-H226 lung) was 3.09 µM. For the same compound, the GI50 (OVCAR-5 ovarian) was 2.08 µM and the TGI (OVCAR-5 ovarian) was 5.07 µM.
